BigSolDB 2.1

O=C(O)c1cc2ccccc2[nH]1
Details	solubility (mole fraction)
in 1,4-dioxane, 286.35 K	0.00276
in 1,4-dioxane, 291.25 K	0.00343
in 1,4-dioxane, 297.05 K	0.00427
in 1,4-dioxane, 301.95 K	0.00476
in 1,4-dioxane, 306.95 K	0.0052
in 1,4-dioxane, 312.15 K	0.00592
in 1,4-dioxane, 317.25 K	0.00636
in 1,4-dioxane, 321.65 K	0.00689
in 1,4-dioxane, 326.55 K	0.00728
in 1,4-dioxane, 331.95 K	0.00791
in 1,4-dioxane, 336.65 K	0.00866
in dichloromethane, 283.15 K	0.000684
in dichloromethane, 287.15 K	0.000724
in dichloromethane, 292.75 K	0.000873
in dichloromethane, 295.65 K	0.00104
in dichloromethane, 299.05 K	0.00119
in dichloromethane, 302.65 K	0.00134
in dichloromethane, 307.25 K	0.00168
in dichloromethane, 313.15 K	0.00224
in ethanol, 278.15 K	0.0569
in ethanol, 283.15 K	0.062
in ethanol, 287.95 K	0.0666
in ethanol, 292.75 K	0.0701
in ethanol, 297.95 K	0.078
in ethanol, 303.05 K	0.0816
in ethanol, 308.35 K	0.0881
in ethanol, 313.25 K	0.0974
in ethanol, 318.65 K	0.102
in ethanol, 324.95 K	0.116
in ethanol, 329.85 K	0.12
in ethanol, 336.25 K	0.135
in ethanol, 342.75 K	0.148
in ethanol, 348.25 K	0.154
in ethanol, 353.15 K	0.165
in ethyl acetate, 284.05 K	0.0433
in ethyl acetate, 290.45 K	0.06
in ethyl acetate, 294.65 K	0.0735
in ethyl acetate, 299.55 K	0.0865
in ethyl acetate, 304.65 K	0.1
in ethyl acetate, 309.35 K	0.108
in ethyl acetate, 313.95 K	0.116
in ethyl acetate, 318.65 K	0.121
in ethyl acetate, 324.35 K	0.128
in ethyl acetate, 328.75 K	0.134
in ethyl acetate, 333.65 K	0.14
in isopropanol, 278.35 K	0.0412
in isopropanol, 285.15 K	0.0525
in isopropanol, 291.05 K	0.0606
in isopropanol, 298.15 K	0.0701
in isopropanol, 305.55 K	0.0855
in isopropanol, 310.15 K	0.0949
in isopropanol, 315.75 K	0.108
in isopropanol, 321.35 K	0.119
in isopropanol, 328.65 K	0.131
in isopropanol, 333.35 K	0.149
in isopropanol, 338.75 K	0.161
in isopropanol, 342.25 K	0.171
in isopropanol, 348.15 K	0.191
in isopropanol, 353.25 K	0.201
in isopropanol, 358.15 K	0.219
in methanol, 278.15 K	0.0679
in methanol, 283.35 K	0.0695
in methanol, 288.95 K	0.0723
in methanol, 293.25 K	0.0752
in methanol, 298.15 K	0.0856
in methanol, 303.35 K	0.0925
in methanol, 307.85 K	0.102
in methanol, 312.95 K	0.118
in methanol, 317.75 K	0.135
in methanol, 323.15 K	0.159
in methanol, 328.25 K	0.189
in methanol, 333.15 K	0.23
in n-butanol, 278.15 K	0.0478
in n-butanol, 285.35 K	0.0538
in n-butanol, 291.05 K	0.0605
in n-butanol, 298.55 K	0.0687
in n-butanol, 305.25 K	0.0758
in n-butanol, 310.75 K	0.0832
in n-butanol, 315.15 K	0.0909
in n-butanol, 321.75 K	0.101
in n-butanol, 328.35 K	0.112
in n-butanol, 333.95 K	0.125
in n-butanol, 338.15 K	0.14
in n-butanol, 342.45 K	0.143
in n-butanol, 348.25 K	0.16
in n-butanol, 353.45 K	0.174
in n-butanol, 358.15 K	0.19
in n-propanol, 278.25 K	0.0437
in n-propanol, 285.45 K	0.0521
in n-propanol, 291.35 K	0.0588
in n-propanol, 298.15 K	0.068
in n-propanol, 305.75 K	0.0801
in n-propanol, 311.25 K	0.088
in n-propanol, 317.75 K	0.0993
in n-propanol, 322.15 K	0.105
in n-propanol, 328.05 K	0.115
in n-propanol, 333.55 K	0.128
in n-propanol, 339.15 K	0.138
in n-propanol, 344.85 K	0.151
in n-propanol, 349.75 K	0.162
in n-propanol, 353.15 K	0.176
in n-propanol, 358.15 K	0.18
in toluene, 287.85 K	0.00052
in toluene, 293.65 K	0.000645
in toluene, 297.95 K	0.000722
in toluene, 302.85 K	0.000786
in toluene, 307.05 K	0.000898
in toluene, 311.55 K	0.000989
in toluene, 313.55 K	0.00104
in toluene, 317.45 K	0.00113
in toluene, 325.15 K	0.00155
in toluene, 337.85 K	0.00295
in toluene, 342.55 K	0.00379
in toluene, 348.25 K	0.00427
in toluene, 360.15 K	0.00642
in water, 293.15 K	6.79e-05
in water, 298.15 K	6.88e-05
in water, 303.15 K	7.03e-05
in water, 308.05 K	7.17e-05
in water, 312.65 K	7.88e-05
in water, 318.15 K	9.36e-05
in water, 323.15 K	0.000115
in water, 328.15 K	0.000149
in water, 333.15 K	0.0002
in water, 338.15 K	0.00028
in water, 343.15 K	0.000409
in water, 348.15 K	0.000616
in water, 353.15 K	0.000962
in water, 358.15 K	0.00155
